The structures appear in SMILES notation. Read-outs that look alike come from different tables or passages of the source.

In general, EC50 refers to the midpoint of the concentration-response curve.

In one test the test system is 3D7 P. falciparum strain. As to the kind of experiment: parasite proliferation assay in infected red blood cells (SYBR Green I). It is filed as cell-based, Plasmodium falciparum. Conditions: 3D7 strain, read-out: EC50 3D7 strain. In a few lines:
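P. falciparum 3D7 grown in O+ human erythrocytes to 3–8% parasitemia and exposed to compounds. Proliferation read as the increase in parasite DNA. Detection used SYBR Green I in saponin/triton-X/EDTA lysis buffer, with overnight lysis at room temperature.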

The subject of the next test is W2 strain. Put plainly: parasite proliferation assay in infected red blood cells (SYBR Green I), W2 strain. It counts as cell-based. An excerpt:
Compounds of the invention can be assayed to measure their capacity to inhibit proliferation of parasitemia in infected red blood cells. The proliferation is quantified by the addition of SYBR Green I (INVITROGEN)® dye which has a high affinity for double stranded DNA.

Setting [1] is: Plasmodium falciparum, 3D7, Erythrocyte.
The mark [2] stands for this setting: Plasmodium falciparum, Erythrocyte.

Regarding `CC1(C)c2nc(-c3ccc(F)cc3)c(-c3ccc(F)cc3)n2CCN1C(=O)CN` [Compound 705], the EC50 with 3D7 P. falciparum strain (setting [1]) was determined as 1240 nM; with W2 strain (setting [2]) it was 760 nM.
On to `CCC(=O)Nc1ccc(C[C@H](NC(=O)OC(C)(C)C)C(=O)N2CCn3c(nc(-c4cccc(F)c4)c3Nc3ccc(Cl)c(F)c3)C2)cc1` [Compound 253], for which the EC50 with 3D7 P. falciparum strain (setting [1]) was 780 nM; in the test with W2 strain (Erythrocyte), 254 nM.
As for `CC(C)[C@H](N)C(=O)N1CCn2c(nc(-c3ccc(F)cc3)c2Nc2ccc(Cl)c(F)c2)C1` [Compound 313], the EC50 in the test on 3D7 P. falciparum strain (setting [1]) came to 20 nM; in the test on W2 strain (Erythrocyte), 4 nM.
Turning to `CC(C)(N)C(=O)N1CCn2c(nc(-c3ccc(F)cc3)c2Nc2ccc(F)c(C(F)(F)F)c2)C1` [Compound 634], the values for the EC50 in the test on 3D7 P. falciparum strain (setting [1]) and in the test with W2 strain (setting [2]) were 467 nM and 447 nM, respectively.
Turning to `N[C@@H](Cc1ccccc1)C(=O)N1CCn2c(nc(-c3ccc(F)cc3)c2Nc2ccc(Cl)c(F)c2)C1` [Compound 324], the EC50 with 3D7 P. falciparum strain (setting [1]) and with W2 strain (Erythrocyte) was 30 nM each time.
As for `CC(C)C[C@H](O)C(=O)N1CCn2c(nc(-c3ccc(F)cc3)c2Nc2ccc(Cl)c(F)c2)C1` [Compound 358], the concentration giving a half-maximal response (EC50) stood at 130 nM with 3D7 P. falciparum strain (setting [1]) and 49 nM with W2 strain (Erythrocyte).
As for `Cc1ccc(Nc2c(-c3ccc(F)cc3)nc3n2CCN(C(=O)[C@H](N)CCCCNC(=O)C(F)(F)F)C3)cc1` [Compound 102], the figures for the EC50 with 3D7 P. falciparum strain (setting [1]) and with W2 strain (Erythrocyte) were 650 nM and 426 nM, respectively.
With `Cc1cc(Nc2c(-c3cccc(F)c3)nc3n2CC(=O)N(CC2CNC2)C3(C)C)ccc1F` [Compound 686], the EC50 is 628 nM with 3D7 P. falciparum strain (setting [1]) and 524 nM in the test on W2 strain (setting [2]).
For `Cc1ccc(Nc2c(-c3ccc(F)cc3)nc3n2CCN(C(=O)CNCc2ccccc2)C3)cc1` [Compound 146], the EC50 with 3D7 P. falciparum strain (setting [1]) amounted to 20 nM; in the test on W2 strain (Erythrocyte), 14 nM.
In the case of `CC1(C)NC2c3nc(-c4ccc(F)cc4)c(Nc4ccc(F)c(F)c4)n3CCN2C1=O` (stereo not shown) [Compound 646, 8-(3,4-difluorophenylamino)-9-(4-fluorophenyl)-2,2-dimethyl-1,2,5,6-tetrahydrodiimidazo[1,2-a:2′,1′-c]pyrazin-3(10bH)-one], the results for the EC50 in the test on 3D7 P. falciparum strain (setting [1]) and in the test with W2 strain (setting [2]) were 5680 nM and 6130 nM, respectively.
For `Cc1ccc(Nc2c(-c3ccc(F)cc3)nc3n2CCN(C(=O)[C@H](N)[C@H](C)O)C3)cc1` [Compound 285], the EC50 is 180 nM in the test on 3D7 P. falciparum strain (setting [1]) and 177 nM in the test on W2 strain (Erythrocyte).
Take `COc1ccc(-c2nc3n(c2Nc2ccc(F)cc2)CCN(C(=O)CN)C3)cc1` [Compound 53]: the EC50 is 2270 nM with 3D7 P. falciparum strain (setting [1]) and 1700 nM in the test on W2 strain (Erythrocyte).
For `Fc1ccc(-c2nc3n(c2Nc2ccc(Cl)c(F)c2)CCNC3)cc1` [Compound 192] the same measures were 110 nM and 95 nM.
With `CC1(C)c2nc(-c3ccc(F)cc3)c(N[C@@H]3C[C@H]4CC[C@@H]3C4)n2CCN1C(=O)CN` [Compound 667], the concentration giving a half-maximal response (EC50) in the test on 3D7 P. falciparum strain (setting [1]) is 104 nM; in the test on W2 strain (setting [2]), 82 nM.
Taken in the same sequence, the figures for `Cc1ccc(Nc2c(-c3ccc(F)cc3)nc3n2CCN(C(=O)C(C)(C)N)C3)cc1C` [Compound 637] were 27 nM and 26 nM.
As for `NC(C(=O)N1CCn2c(nc(-c3ccc(F)cc3)c2Nc2ccc(Cl)c(F)c2)C1)c1ccc(C(F)(F)F)cc1` (stereo not shown) [Compound 368], the concentration for a half-maximal effect (EC50) is 520 nM with 3D7 P. falciparum strain (setting [1]) and 286 nM in the test on W2 strain (Erythrocyte).
Taken in the same sequence, the figures for `Cc1ccc(Nc2c(-c3ccc(F)cc3)nc3n2CC(=O)NC3)cc1` [Compound 300] were 1110 nM and 1170 nM.
Taken in the same sequence, the figures for `Cc1ccc(Nc2c(-c3ccc(F)cc3)nc3n2CCN(C(=O)C(O)c2cccc(O)c2)C3)cc1` (stereo not shown) [Compound 129] were 10 nM and 6 nM.
Consider `CC(C)(N)C(=O)N1CCn2c(nc(-c3ccc(F)cc3)c2NC2CCCCC2)C1` [Compound 27], for which the EC50 in the test with 3D7 P. falciparum strain (setting [1]) came out at 9610 nM; with W2 strain (Erythrocyte), 5980 nM.
For `Cc1ccc(Nc2c(-c3ccc(F)cc3)nc3n2CCN(C(=O)CC(C)(O)C(F)(F)F)C3)cc1` (stereo not shown) [Compound 120] the same measures were 110 nM and 123 nM.
In the case of `CC1(C)c2nc(-c3ccc(F)cc3)c(NC3CCCCCC3)n2CCN1C(=O)CN` [Compound 665], the EC50 was determined as 102 nM in the test on 3D7 P. falciparum strain (setting [1]) and 69 nM with W2 strain (setting [2]).
For `Cc1ccc(Nc2c(-c3ccc(F)cc3)nc3n2CCN(C(=O)C2CCCN2)C3)cc1` (stereo not shown) [Compound 91], the EC50 with 3D7 P. falciparum strain (setting [1]) was 120 nM; in the test on W2 strain (Erythrocyte), 154 nM.
For `Cc1ccc(Nc2c(-c3ccc(F)cc3)nc3n2CCN(C(=O)C(C)Oc2ccccc2)C3)cc1` (stereo not shown) [Compound 202] the same measures were 160 nM and 102 nM.
Take `Cc1ccc(Nc2c(-c3ccc(F)cc3)nc3n2CCN(C(=O)Cc2ccc(F)cc2)C3)cc1` [Compound 233]: the concentration for a half-maximal effect (EC50) in the test on 3D7 P. falciparum strain (setting [1]) came out at 10 nM; in the test with W2 strain (Erythrocyte) it was 15 nM.
Regarding `Cc1cc(Nc2c(-c3ccc(F)cc3)nc3n2C(C)(C)C(=O)N(C)C3)ccc1Cl` [Compound 616], the half-maximal effective concentration (EC50) was found to be 5720 nM in the test with 3D7 P. falciparum strain (setting [1]) and 4560 nM in the test on W2 strain (setting [2]).
In the case of `CCN(CC)c1ccc(CN2CCn3c(nc(-c4ccc(F)cc4)c3Nc3ccc(C)cc3)C2)cc1` [Compound 182], the concentration for a half-maximal effect (EC50) came out at 1370 nM with 3D7 P. falciparum strain (setting [1]) and 1080 nM in the test with W2 strain (Erythrocyte).
Taken in the same sequence, the figures for `CCCC(=O)N[C@H](C(=O)N1CCn2c(nc(-c3ccc(F)cc3)c2Nc2ccc(C)cc2)C1)c1ccccc1` [Compound 291] were 1200 nM and 567 nM.
Taken in the same sequence, the figures for `CC(C)(N)C(=O)N1CCn2c(nc(-c3cccc(F)c3)c2Nc2ccc(F)cc2C(F)(F)F)C1` [Compound 375] were 1130 nM and 679 nM.
Taken in the same sequence, the figures for `CC(O)CN[C@@H](Cc1ccccc1)C(=O)N1CCn2c(nc(-c3ccc(F)cc3)c2Nc2ccc(Cl)c(F)c2)C1` (stereo partly shown) [Compound 281] were 820 nM and 596 nM.
Take `CCCNC(=O)C[C@H](N)C(=O)N1CCn2c(nc(-c3cccc(F)c3)c2Nc2ccc(F)cc2)C1` [Compound 256]: the 50% effective concentration (EC50) in the test with 3D7 P. falciparum strain (setting [1]) amounted to 1160 nM; with W2 strain (Erythrocyte), 1480 nM.
Take `CC1(C)c2nc(-c3ccc(F)cc3)c(Cc3ccc(F)c(F)c3)n2CCN1C(=O)CN` [Compound 696]: the results for the EC50 in the test with 3D7 P. falciparum strain (setting [1]) and in the test with W2 strain (setting [2]) were 20 nM and 22 nM, respectively.
As to `Cc1ccc(Nc2c(-c3ccc(F)cc3)nc3n2CCN(C(=O)C2CCOC2)C3)cc1` (stereo not shown) [Compound 212], the figures for the concentration giving a half-maximal response (EC50) in the test with 3D7 P. falciparum strain (setting [1]) and in the test with W2 strain (Erythrocyte) were 1950 nM and 1980 nM, respectively.
Taken in the same sequence, the figures for `O=C(CN1CC[C@@H](F)C1)N1CCn2c(nc(-c3ccc(F)cc3)c2Nc2ccc(F)cc2)C1` [Compound 58] were 470 nM and 280 nM.
In the case of `Cc1ccc(Nc2c(-c3ccc(F)cc3)nc3n2CCN(C(=O)C2CCNC2)C3)cc1` (stereo not shown) [Compound 96], the results for the EC50 in the test with 3D7 P. falciparum strain and in the test with W2 strain were 580 nM and 321 nM, respectively.
In the case of `O=C(Cn1ccc2ccccc21)N1CCn2c(nc(-c3ccc(F)cc3)c2Nc2ccc(Cl)c(F)c2)C1` [Compound 303], the values for the 50% effective concentration (EC50) in the test with 3D7 P. falciparum strain (setting [1]) and with W2 strain (Erythrocyte) were 540 nM and 439 nM, respectively.
For the molecule `CC1CCCCC1Nc1c(-c2ccc(F)cc2)nc2n1CCN(C(=O)CN)C2(C)C` (stereo not shown) [Compound 664], the EC50 stood at 3690 nM with 3D7 P. falciparum strain (setting [1]) and 4080 nM with W2 strain (setting [2]).
Take `CC1(C)c2nc(-c3ccc(F)cc3)c(Nc3ccc(F)cc3)n2CCN1C(=O)CNC(=O)CCNC(=O)CCc1ccc2oc3ccccc3c2c1` [Compound 729]: the concentration giving a half-maximal response (EC50) in the test with 3D7 P. falciparum strain (setting [1]) is more than 10000 nM; with W2 strain (setting [2]), 6290 nM.
`CC1(C)c2nc(-c3ccc(F)cc3)c(Nc3ccc(C#N)c(C(F)(F)F)c3)n2CCN1C(=O)CN` [Compound 655]: the EC50 with 3D7 P. falciparum strain (setting [1]) was determined as 17 nM; with W2 strain (setting [2]), 20 nM.
For the molecule `CC1(C)c2nc(-c3ccc(F)cc3)c(Nc3ccc(F)cc3)n2CCN1C(=O)CNCCCNC(=O)CCc1ccccc1` [Compound 730, N-(3-(2-(2-(4-fluorophenyl)-3-(4-fluorophenylamino)-8,8-dimethyl-5,6-dihydroimidazo[1,2-a]pyrazin-7 (8H)-yl)-2-oxoethylamino)propyl)-3-phenylpropanamide], the EC50 in the test on 3D7 P. falciparum strain (setting [1]) came to 1360 nM; in the test with W2 strain (setting [2]), 474 nM.
On to `Cc1ccc(Nc2c(-c3ccc(F)cc3)nc3n2CCN(C(=O)[C@H](CO)NC(=O)C(F)(F)F)C3)cc1` [Compound 164], for which the EC50 is more than 9810 nM in the test with 3D7 P. falciparum strain (setting [1]) and 3760 nM with W2 strain (Erythrocyte).
Consider `Cc1ccc(Nc2c(-c3ccc(F)cc3)nc3n2CC(=O)N(CCN(C)C)C3(C)C)cc1F` [Compound 681], for which the EC50 with 3D7 P. falciparum strain (setting [1]) is 272 nM; with W2 strain (setting [2]), 196 nM.
With `Cc1ccc(Nc2c(-c3ccc(F)cc3)nc3n2CCN(C(=O)C(N)C(F)(F)F)C3)cc1` (stereo not shown) [Compound 144], the EC50 was 50 nM in the test on 3D7 P. falciparum strain (setting [1]) and 73 nM in the test with W2 strain (Erythrocyte).
For the molecule `Cc1cc(Nc2c(-c3cccc(F)c3)nc3n2CC(=O)N(CCCC(=O)O)C3(C)C)ccc1F` [Compound 692, 4-(3-(4-fluoro-3-methylphenylamino)-2-(3-fluorophenyl)-8,8-dimethyl-6-oxo-5,6-dihydroimidazo[1,2-a]pyrazin-7(8H)-yl)butanoic acid], the 50% effective concentration (EC50) in the test with 3D7 P. falciparum strain (setting [1]) came out at 6450 nM; in the test on W2 strain (setting [2]) it was 5340 nM.
Regarding `CNCC(=O)N1CCn2c(nc(-c3ccc(F)cc3)c2Nc2ccc(F)cc2)C1` [Example 32, 1-(2-(4-fluorophenyl)-3-(4-fluorophenylamino)-5,6-dihydroimidazo[1,2-a]pyrazin-7(8H)-yl)-2-(methylamino)ethanone], the results for the half-maximal effective concentration (EC50) in the test with 3D7 P. falciparum strain (setting [1]) and in the test on W2 strain (Erythrocyte) were 210 nM and 219 nM, respectively.
Consider `Cc1ccc(Nc2c(-c3ccc(F)cc3)nc3n2CCN(C(=O)C2CCCNC2)C3)cc1` (stereo not shown) [Compound 87], for which the figures for the EC50 with 3D7 P. falciparum strain and in the test with W2 strain were 20 nM and 12 nM, respectively.
`NCC(=O)N1CCn2c(nc(-c3ccc(F)cc3)c2Nc2cc(F)cc(F)c2)C1` [Compound 67]: the results for the half-maximal effective concentration (EC50) with 3D7 P. falciparum strain (setting [1]) and in the test with W2 strain (Erythrocyte) were 190 nM and 197 nM, respectively.
In the case of `CC(=O)NCCCC[C@H](N)C(=O)N1CCn2c(nc(-c3ccc(F)cc3)c2Nc2ccc(C)cc2)C1` [Compound 101], the EC50 was determined as 5090 nM in the test on 3D7 P. falciparum strain (setting [1]) and 4370 nM in the test with W2 strain (Erythrocyte).

Source of the values: patent US9469645B2, “Compounds and compositions for the treatment of parasitic diseases” (Novartis AG, priority 2009, dated 2016).
